By IC50 is commonly meant the concentration that gives 50% inhibition. A lower IC50 goes with greater potency.

The text below walks through data of the Kinase Knowledgebase extract (Sharma et al. 2016).

This assay has as its target MAPK14 (UniProt Q16539). As to the kind of experiment: Inhibition of MAPK14 Kinase Activity.

Chain of MAPK14 (Q16539 whole entry, looked up): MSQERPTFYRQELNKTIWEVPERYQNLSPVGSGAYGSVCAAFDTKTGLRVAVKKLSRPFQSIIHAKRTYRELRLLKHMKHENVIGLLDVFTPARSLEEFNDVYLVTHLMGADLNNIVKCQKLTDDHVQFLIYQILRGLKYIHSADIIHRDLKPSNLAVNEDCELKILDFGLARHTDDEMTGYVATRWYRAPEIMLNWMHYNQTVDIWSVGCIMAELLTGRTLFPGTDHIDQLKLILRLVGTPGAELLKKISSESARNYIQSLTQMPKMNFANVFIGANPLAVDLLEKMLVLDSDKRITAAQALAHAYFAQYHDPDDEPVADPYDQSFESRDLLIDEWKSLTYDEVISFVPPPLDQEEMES

Molecule `Cc1c(F)cc(C(=O)NC2CC2)cc1-c1ccc(C(=O)NCc2cccc(Cl)c2F)cn1` showed an IC50 of less than 10 µM.

`Cc1c(F)cc(C(=O)NC2CC2)cc1-c1ccc(C(=O)NCc2cc(Cl)ccc2F)cn1` showed an IC50 of less than 10 µM.

As for `CCC(C)(C)NC(=O)c1ccc(-c2cc(C(=O)NC3CC3)cc(F)c2C)nc1`, the IC50 was less than 10 µM.

`CCNC(=O)c1ccc(-c2cc(C(=O)NC3CC3)cc(F)c2C)nc1` showed an IC50 of less than 10 µM.

`Cc1ccc(C(=O)Nc2nncs2)cc1-c1ccc(C(=O)NCc2cccc(NS(C)(=O)=O)c2)cn1` came in with an IC50 of less than 10 µM.

Regarding `Cc1c(F)cc(C(=O)NC2CC2)cc1-c1ccc(C(=O)NCc2cc(F)ccc2F)cn1`, the IC50 is less than 10 µM.

In the case of `CCCC(O)C(C)NC(=O)c1ccc(-c2cc(C(=O)NC3CC3)cc(F)c2C)nc1` (stereo unspecified), the IC50 is less than 10 µM.

In the case of `Cc1c(F)cc(C(=O)NC2CC2)cc1-c1ccc(C(=O)NCc2ccccc2Cl)cn1`, the IC50 was less than 10 µM.

In turn, `Cc1c(F)cc(C(=O)NC2CC2)cc1-c1ccc(C(=O)N2CCC(C)C2(C)C)cn1` (stereo unspecified) came in with an IC50 of less than 10 µM.

In turn, `Cc1c(F)cc(C(=O)NC2CC2)cc1-c1ccc(C(=O)NCCC(C)(C)C)cn1` registered an IC50 of less than 10 µM.

`Cc1ccc(NC(=O)c2ccsc2)cc1-c1ccc(C(=O)Nc2ccccc2CN2CCN(C)CC2)cn1`: the IC50 is less than 10 µM.

`Cc1ccc(C(=O)Nc2nccs2)cc1-c1ccc(C(=O)NCc2cccc(NS(C)(=O)=O)c2)cn1` registered a half-maximal inhibitory concentration (IC50) of less than 10 µM.

`COc1cccc(CNC(=O)c2ccc(-c3cc(C(=O)Nc4nncs4)ccc3C)nc2)c1`: the IC50 was less than 10 µM.

Molecule `Cc1c(F)cc(C(=O)NC2CC2)cc1-c1ccc(C(=O)NCc2cc(F)c(F)c(F)c2)cn1` had an IC50 of less than 10 µM.

The molecule `Cc1ccc(CNC(=O)c2ccc(-c3cc(C(=O)NC4CC4)cc(F)c3C)nc2)cc1` came in with a half-inhibitory concentration (IC50) of less than 10 µM.

Regarding `Cc1c(F)cc(C(=O)NC2CC2)cc1-c1ccc(C(=O)NCc2ccc(C(F)(F)F)cc2)cn1`, the IC50 is less than 10 µM.

In turn, `Cc1c(F)cc(C(=O)NC2CC2)cc1-c1ccc(C(=O)NC2CCCC2)cn1` displayed a half-maximal inhibitory concentration (IC50) of less than 10 µM.

As for `Cc1c(F)cc(C(=O)NC2CC2)cc1-c1ccc(C(=O)N2CCCCC2C)cn1` (stereo unspecified), the IC50 is less than 10 µM.

`Cc1ccc(NC(=O)c2ccoc2)cc1-c1ccc(C(=O)NCc2cccc(NS(C)(=O)=O)c2)cn1` displayed a concentration for half-maximal inhibition (IC50) of less than 10 µM.

Turning to `Cc1ccc(C(=O)NC2CC2)cc1-c1ccc(C(=O)Nc2ccccc2CN2CCN(C)CC2)cn1`, the IC50 is less than 10 µM.

For the molecule `Cc1c(F)cc(C(=O)NC2CC2)cc1-c1ccc(C(=O)NCc2ccccc2C(F)(F)F)cn1`, the IC50 is less than 10 µM.

For the molecule `Cc1c(F)cc(C(=O)NC2CC2)cc1-c1ccc(C(=O)NCC2CCCC2)cn1`, the half-inhibitory concentration (IC50) is less than 10 µM.

Turning to `Cc1ccc(NC(=O)c2ccsc2)cc1-c1ccc(C(=O)NCc2cccc(NS(C)(=O)=O)c2)cn1`, the IC50 is less than 10 µM.

Consider `Cc1c(F)cc(C(=O)NC2CC2)cc1-c1ccc(C(=O)NC2CC2(C)C)cn1` (stereo unspecified), for which the IC50 was less than 10 µM.

Regarding `Cc1c(F)cc(C(=O)NC2CC2)cc1-c1ccc(C(=O)NCc2nccs2)cn1`, the half-inhibitory concentration (IC50) was less than 10 µM.

As to `Cc1c(F)cc(C(=O)NC2CC2)cc1-c1ccc(C(=O)NCC(C)C(F)(F)F)cn1` (stereo unspecified), the 50% inhibitory concentration (IC50) was less than 10 µM.

`Cc1c(F)cc(C(=O)NC2CC2)cc1-c1ccc(C(=O)N2CCC(C)CC2C)cn1` (stereo unspecified) returned an IC50 of less than 10 µM.

`COc1ccc(NC(=O)c2ccc(-c3cc(C(=O)NCC4CC4)ccc3C)nc2)cc1` gave an IC50 of less than 10 µM.

In turn, `Cc1c(F)cc(C(=O)NC2CC2)cc1-c1ccc(C(=O)N(C)CC(C)C)cn1` showed a 50% inhibitory concentration (IC50) of less than 10 µM.

Molecule `COc1ccc(NC(=O)c2ccc(-c3cc(C(=O)Nc4nncs4)ccc3C)nc2)cc1` returned an IC50 of less than 10 µM.

`Cc1c(F)cc(C(=O)NC2CC2)cc1-c1ccc(C(=O)NCc2cc(F)c(F)cc2F)cn1` registered an IC50 of less than 10 µM.

With `Cc1cccc(NC(=O)c2ccc(-c3cc(C(=O)NC4CC4)cc(F)c3C)nc2)c1`, the IC50 is less than 10 µM.

`Cc1c(F)cc(C(=O)NC2CC2)cc1-c1ccc(C(=O)NCc2cccc(F)c2)cn1` came in with an IC50 of less than 10 µM.

The molecule `Cc1c(F)cc(C(=O)NC2CC2)cc1-c1ccc(C(=O)NCCC(F)(F)F)cn1` yielded an IC50 of less than 10 µM.

For the molecule `CCC1CCCN(C(=O)c2ccc(-c3cc(C(=O)NC4CC4)cc(F)c3C)nc2)C1` (stereo unspecified), the IC50 is less than 10 µM.

The molecule `CCC1(CC)CN(C(=O)c2ccc(-c3cc(C(=O)NC4CC4)cc(F)c3C)nc2)C1` returned an IC50 of less than 10 µM.

`Cc1ccc(F)cc1CNC(=O)c1ccc(-c2cc(C(=O)NC3CC3)cc(F)c2C)nc1` came in with a 50% inhibitory concentration (IC50) of less than 10 µM.

For the molecule `COC(C)(C)CNC(=O)c1ccc(-c2cc(C(=O)NC3CC3)cc(F)c2C)nc1`, the IC50 was less than 10 µM.

In turn, `Cc1c(F)cc(C(=O)NC2CC2)cc1-c1ccc(C(=O)NCc2ccc(F)c(Cl)c2)cn1` returned an IC50 of less than 10 µM.

The molecule `Cc1ccc(C(=O)NCC2CC2)cc1-c1ccc(C(=O)Nc2ccccc2CN2CCN(C)CC2)cn1` returned an IC50 of less than 10 µM.

In turn, `Cc1ccc(NC(=O)c2ccoc2)cc1-c1ccc(C(=O)NCC2CC2)cn1` came in with an IC50 of less than 10 µM.

Consider `CCCC1CCCCN1C(=O)c1ccc(-c2cc(C(=O)NC3CC3)cc(F)c2C)nc1` (stereo unspecified), for which the IC50 was less than 10 µM.

The molecule `Cc1c(F)cc(C(=O)NC2CC2)cc1-c1ccc(C(=O)NC(C)CC(C)C)cn1` (stereo unspecified) showed an IC50 of less than 10 µM.

With `Cc1c(F)cc(C(=O)NC2CC2)cc1-c1ccc(C(=O)NC2CC2)cn1`, the IC50 was less than 10 µM.

Take `Cc1ccc(C(=O)NCC2CC2)cc1-c1ccc(C(=O)NCc2cccc(NS(C)(=O)=O)c2)cn1`: the IC50 was less than 10 µM.

As to `Cc1cccc(CNC(=O)c2ccc(-c3cc(C(=O)NC4CC4)cc(F)c3C)nc2)c1`, the IC50 is less than 10 µM.

In turn, `CCCC(O)C(C)(C)NC(=O)c1ccc(-c2cc(C(=O)NC3CC3)cc(F)c2C)nc1` (stereo unspecified) displayed an IC50 of less than 10 µM.

As for `Cc1c(F)cc(C(=O)NC2CC2)cc1-c1ccc(C(=O)NCc2ccc(Cl)cc2F)cn1`, the IC50 was less than 10 µM.

For the molecule `Cc1c(F)cc(C(=O)NC2CC2)cc1-c1ccc(C(=O)NCc2cc(F)cc(F)c2F)cn1`, the IC50 was less than 10 µM.

`Cc1ccc(C(=O)Nc2nccs2)cc1-c1ccc(C(=O)Nc2ccccc2CN2CCN(C)CC2)cn1` registered an IC50 of less than 10 µM.

`Cc1c(F)cc(C(=O)NC2CC2)cc1-c1ccc(C(=O)N2CCCC(C)C2C)cn1` (stereo unspecified) displayed an IC50 of less than 10 µM.

Turning to `Cc1c(F)cc(C(=O)NC2CC2)cc1-c1ccc(C(=O)NCc2cccc(F)c2F)cn1`, the IC50 is less than 10 µM.

As to `Cc1c(F)cc(C(=O)NC2CC2)cc1-c1ccc(C(=O)NCc2ccc(F)cc2)cn1`, the IC50 is less than 10 µM.

On to `CCC1CC1CNC(=O)c1ccc(-c2cc(C(=O)NC3CC3)cc(F)c2C)nc1` (stereo unspecified), for which the IC50 is less than 10 µM.

In turn, `Cc1csc(CNC(=O)c2ccc(-c3cc(C(=O)NC4CC4)cc(F)c3C)nc2)n1` came in with an IC50 of less than 10 µM.

The molecule `COc1cccc(NC(=O)c2ccc(-c3cc(C(=O)NC4CC4)cc(F)c3C)nc2)c1` gave an IC50 of less than 10 µM.

As for `COc1ccc(NC(=O)c2ccc(-c3cc(NC(=O)c4ccoc4)ccc3C)nc2)cc1`, the IC50 was less than 10 µM.

In turn, `Cc1ccc(NC(=O)c2ccoc2)cc1-c1ccc(C(=O)Nc2ccccc2CN2CCN(C)CC2)cn1` came in with an IC50 of less than 10 µM.

In turn, `CCN(C(=O)c1ccc(-c2cc(C(=O)NC3CC3)cc(F)c2C)nc1)C(C)C` had an IC50 of less than 10 µM.

For `Cc1c(F)cc(C(=O)NC2CC2)cc1-c1ccc(C(=O)N2CCCC(C)C2)cn1` (stereo unspecified), the IC50 was less than 10 µM.

Take `Cc1ccc(CNC(=O)c2ccc(-c3cc(C(=O)NC4CC4)cc(F)c3C)nc2)o1`: the IC50 was less than 10 µM.
